Results published in the supplement of paper PMC11451515.

System: NOMO1
Assay: cell viability relative to DMSO control; higher = less cytotoxic
Conditions: 48 h
Method in brief: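 Viability was expressed as a per-plate percentage of DMSO wells, with cell-free wells as background. Leukemia cells (NOMO1 or SEM at 500 cells/well, P12-Ichikawa at 1000 cells/well) were adapted for at least four passages in each medium and seeded in 1536-well plates (5 μl). Library compounds in DMSO were pin-dosed over an 11-point threefold series from 47 μM to 0.79 nM, and CellTiter-Glo One luminescence was read after 48 h at 37°C.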

[1] = HPLM + 10% dialyzed FBS, 0.000781 µM
[2] = HPLM + 10% dialyzed FBS, 0.00234 µM
[3] = HPLM + 10% dialyzed FBS, 0.00702 µM
[4] = HPLM + 10% dialyzed FBS, 0.0211 µM
[5] = HPLM + 10% dialyzed FBS, 0.0632 µM
[6] = HPLM + 10% dialyzed FBS, 0.19 µM
[7] = HPLM + 10% dialyzed FBS, 0.569 µM
[8] = HPLM + 10% dialyzed FBS, 1.71 µM
[9] = HPLM + 10% dialyzed FBS, 5.12 µM
[10] = HPLM + 10% dialyzed FBS, 15.4 µM
[11] = HPLM + 10% dialyzed FBS, 46.1 µM
[12] = RPMI 5 mM glucose + 10% FBS, 0.000781 µM
[13] = RPMI 5 mM glucose + 10% FBS, 0.00234 µM
[14] = RPMI 5 mM glucose + 10% FBS, 0.00702 µM
[15] = RPMI 5 mM glucose + 10% FBS, 0.0211 µM
[16] = RPMI 5 mM glucose + 10% FBS, 0.0632 µM
[17] = RPMI 5 mM glucose + 10% FBS, 0.19 µM
[18] = RPMI 5 mM glucose + 10% FBS, 0.569 µM
[19] = RPMI 5 mM glucose + 10% FBS, 1.71 µM
[20] = RPMI 5 mM glucose + 10% FBS, 5.12 µM
[21] = RPMI 5 mM glucose + 10% FBS, 15.4 µM
[22] = RPMI 5 mM glucose + 10% FBS, 46.1 µM
[23] = RPMI 5 mM glucose + 10% dialyzed FBS, 0.000781 µM
[24] = RPMI 5 mM glucose + 10% dialyzed FBS, 0.00234 µM
[25] = RPMI 5 mM glucose + 10% dialyzed FBS, 0.00702 µM
[26] = RPMI 5 mM glucose + 10% dialyzed FBS, 0.0211 µM
[27] = RPMI 5 mM glucose + 10% dialyzed FBS, 0.0632 µM
[28] = RPMI 5 mM glucose + 10% dialyzed FBS, 0.19 µM
[29] = RPMI 5 mM glucose + 10% dialyzed FBS, 0.569 µM
[30] = RPMI 5 mM glucose + 10% dialyzed FBS, 1.71 µM
[31] = RPMI 5 mM glucose + 10% dialyzed FBS, 5.12 µM
[32] = RPMI 5 mM glucose + 10% dialyzed FBS, 15.4 µM
[33] = RPMI 5 mM glucose + 10% dialyzed FBS, 46.1 µM

Compound	cell viability [1] [%]	cell viability [2] [%]	cell viability [3] [%]	cell viability [4] [%]	cell viability [5] [%]	cell viability [6] [%]	cell viability [7] [%]	cell viability [8] [%]	cell viability [9] [%]	cell viability [10] [%]	cell viability [11] [%]	cell viability [12] [%]	cell viability [13] [%]	cell viability [14] [%]	cell viability [15] [%]	cell viability [16] [%]	cell viability [17] [%]	cell viability [18] [%]	cell viability [19] [%]	cell viability [20] [%]	cell viability [21] [%]	cell viability [22] [%]	cell viability [23] [%]	cell viability [24] [%]	cell viability [25] [%]	cell viability [26] [%]	cell viability [27] [%]	cell viability [28] [%]	cell viability [29] [%]	cell viability [30] [%]	cell viability [31] [%]	cell viability [32] [%]	cell viability [33] [%]
Cn1cnc([N+](=O)[O-])c1Sc1ncnc2nc[nH]c12	79.8	79.6	107	99.1	109	93.9	114	89.9	6.49	6.93	7.54	79.6	87.5	91.3	96.6	85.1	95.6	82.8	73.1	57.4	6.27	5.14	88.9	96.7	93.3	90	98.6	92.2	90	77.9	48.6	6.5	6.03
C[C@H]1Oc2cc(cnc2N)-c2c(nn(C)c2C#N)CN(C)C(=O)c2ccc(F)cc21	–	–	–	–	–	–	–	–	–	–	–	106	132	125	108	119	126	123	123	131	106	101	–	–	–	–	–	–	–	–	–	–	–
Nc1ccn([C@H]2CS[C@@H](CO)O2)c(=O)n1	–	–	–	–	–	–	–	–	–	–	–	112	122	144	133	135	138	139	148	133	140	145	–	–	–	–	–	–	–	–	–	–	–
CCOC(=O)O[C@]1(C(=O)OCCl)CC[C@H]2[C@@H]3CCC4=CC(=O)C=C[C@]4(C)[C@H]3[C@@H](O)C[C@@]21C	101	95.9	103	105	103	108	110	99.3	95.3	84.3	82	98.4	88.2	96.2	84.2	82.2	94.6	85.7	87.5	87.1	89.3	95	88.1	95.1	93.2	87.4	91	100	88.6	98.2	75.8	80.2	93.4
Cc1cnc(Nc2ccc(N3CCN(C)CC3)cc2)nc1Nc1cccc([S+](=O)([O-])NC(C)(C)C)c1	122	117	115	104	122	120	95.7	80.2	65.8	45.5	5.81	100	108	99.1	98.6	101	102	102	87.6	77.8	44.6	15.2	112	113	107	111	110	94.2	101	95.8	74.6	56.8	21.5
COC(=O)[C@H](c1ccccc1Cl)N1CCc2sccc2C1	103	110	127	117	109	104	117	37.4	39.5	24.8	24.8	87.8	109	89.1	92.3	103	93.7	97.4	21.7	20.9	15.9	14	81	90.5	101	94.4	100	103	102	36.6	22.8	23.6	22.2
C1COC(NC(C2CC2)C2CC2)=N1	73.1	94	93	90.6	92.3	83.5	97.3	95.5	94.8	96.3	64.8	75.3	92.5	79.2	87.6	89.7	90.8	89.5	80.1	90.7	91.1	84.5	79.2	86.1	83.9	85	86.4	94.1	97.6	81.4	82.7	89.2	73
Oc1ccc2ccccc2c1SSc1c(O)ccc2ccccc12	94.5	101	101	126	124	135	111	125	114	92.8	103	98.9	94.4	111	119	108	109	110	107	96.9	104	96.4	85.3	93.9	117	116	105	105	109	105	96.3	100	78.9
CC(C)n1cnc2c(NCCc3ccc(O)cc3)nc(-c3csc4ccccc34)nc21	108	98	124	99.4	121	116	144	139	51.1	33.8	13.4	115	114	104	113	127	114	119	113	119	57.1	24.9	114	116	115	121	124	116	125	140	130	57.1	29.1
CO[C@@H]1[C@@H](O)[C@H](O)[C@@H](n2c3c(Cl)cccc3c3c4c(c5c6cccc(Cl)c6[nH]c5c32)C(=O)NC4=O)O[C@H]1CO	103	116	106	103	105	107	89.6	21.6	30.5	25.7	18.3	93.3	91.3	106	105	86.7	86.4	91.7	16.7	20.3	19.3	16.4	84.7	103	89.9	98.5	90.8	99.9	87.2	20.7	21.3	22.6	19.7
CC(C)(Sc1ccc(CCN(CCCCC2CCCCC2)C(=O)NC2CCCCC2)cc1)C(=O)O	107	120	101	111	109	109	118	108	101	114	101	102	120	113	110	120	120	107	118	98	95.6	118	106	102	102	114	113	104	112	108	93.7	114	98.8
Oc1c(Cl)cc(Cl)c2cccnc12	102	113	115	93.6	97.4	92.6	113	91.4	96.2	111	81.6	91.7	69.2	105	94.3	92.6	98.4	116	90.6	84.8	91.6	62.6	93.1	90.8	108	97.7	103	94.3	121	101	101	91.7	56.5
COc1cc2ncn(-c3cc(OCc4ccccc4C(F)(F)F)c(C(N)=O)s3)c2cc1OC	124	117	126	117	120	115	89.2	46.1	42.2	41.2	24.9	99.2	111	116	111	120	118	110	94.9	26.3	24.6	17.6	108	122	112	113	112	123	117	85.2	32.4	30.1	24.9
N=C(N)NC(=N)N1CCOCC1	102	84.7	106	103	106	111	111	103	103	89.6	87.1	95.2	93.1	115	101	111	106	102	97.1	98.7	84.4	87.4	96.4	93.3	89.8	88.8	106	104	101	87.2	87.9	86	89.7
CCOCC(O)COc1ccc(NC(=O)CC[S+](C)C)cc1 (stereo unspecified)	91.1	84.9	106	98.4	93.1	92.4	110	107	97	107	98.5	77.9	87.1	86.7	86.7	87.3	82.1	89.7	80.8	91	94.3	84.2	82.1	81.8	78.1	96.5	90.6	90.7	86.3	84.4	95.3	80.1	85.9
